Experimental findings from patent EP4740948A1 (Dong Wha Pharm. Co., Ltd., priority 2023, dated 2025) are described below.

Bounds are passed on as bounds.

The target in experiment [1] is EZH1 (Homo sapiens, UniProt Q92800). As to the kind of experiment: AlphaLISA enzyme activity inhibition, EZH1. Type of experiment: biochemical. As to conditions: for inhibition at 0.005 µM: 5nM test substance; for inhibition at 0.01 µM: 10nM test substance. How it is done: (§1) In order to confirm the EZH1 and/or EZH2 activity inhibitory effect of the 1,3-benzodioxole derivative compounds represented by chemical formula I of the present invention, the activity was measured using an AlphaLISA test method. The test substance dissolved in dimethylsulfoxide (DMSO) was diluted in a test solution (20 mM Tris pH 8.0, 0.1% BSA, 0.01% Triton X-100, 0.5 mM DTT) according to a final treatment concentration (5 nM or 10 nM) and mixed with EZH1 and EZH2, respectively, and then histone H3 peptide and S-adenosylmethionine (SAM) were added to initiate an enzyme reaction. An acceptor bead was added thereto after reaction for two hours and subjected to an additional reaction for one hour, after which a donor bead was added thereto. After an additional reaction for 30 minutes, the reaction was completed. An activity was measured using the Magellan program on a Spark10M instrument. DMSO was used as a control group, an inhibition rate of enzyme activity was calculated using a following equation, and the results thereof are shown in Table 1 below. [formula]
A general note: Alpha assays give light when donor and acceptor beads are brought close together.

Experiment [2] deals with EZH2 (Homo sapiens, UniProt Q15910). Description: AlphaLISA enzyme activity inhibition, EZH2. Conditions: for inhibition at 0.005 µM: 5nM test substance; for inhibition at 0.01 µM: 10nM test substance. Type of experiment: biochemical. How it is done:
as §1

In experiment [3] the test system is Lovo cells. As to the kind of experiment: Cancer cell proliferation inhibition (Cell Counting Kit-8), colorectal cancer cell line. Conditions: Homo sapiens, LoVo, 264 h, 1000 nM, cultured seven to 11 days; read-out: % inhibition rate LoVo. Type of experiment: cell-based. How it is done: (§2) In addition, as one example of solid cancer in which an overexpression of EZH2 and a consequent disease association therebetween is reported, a proliferation inhibitory activity of the 1,3-benzodioxole derivative compounds represented by chemical formula I of the present invention was evaluated in Lovo cells as a colorectal cancer cell line, SW-13 cells as an adrenal cancer cell line, MIA-PaCa-2 cells as a pancreatic cancer cell line, and NCI-H1299 cells as a lung cancer cell line.
(§3) Each cell line (G401 cell, MKN-45 cell, Lovo cell, SW-13 cell, MIA-PaCa-2, NCI-H1299) of Table 2 below was cultured using RPMI1640, McCoy's 5a, L-15 or DMEM containing 10% fetal bovine serum, and the cells were seeded into wells of a 96-well culture dish at 100 to 1,000 cells each, and a test substance 1000 nM was cultured for seven to 11 days after drug treatment. After the culture, the cells were measured according to a manufacturer's instructions using Cell Counting Kit-8, and a cell proliferation inhibitory effect (% inhibition rate) of the test substance was obtained.
(§4) The cell proliferation inhibitory effect (% inhibition rate) of the test substance was calculated using a following equation. % inhibition rate = {1−(testgroup/controlgroup)} X 100 [formula]
Background: Formazan colour is commonly taken as a measure of viable cells.

The test system of experiment [4] is G401 cells. Description: Cancer cell proliferation inhibition (Cell Counting Kit-8), rhabdoid tumor cell line. The experiment is classed as cell-based. As to conditions: 1000 nM, cultured seven to 11 days; for inhibition at 1 µM: Homo sapiens, G-401, 264 h, read-out: % inhibition rate G401.
Source text: (§5) Among solid cancer cells, in G401 cells in which expression of SMARCB1, which is a member of switch/sucrosenon-fermenting (SWI/SNF), is defective as a cell line of a rhabdoid tumor in which a therapeutic effect may be expected through dual inhibition of EZH1/2, and MKN-45 cells in which expression of ARID1A, which is a member of SWI/SNF, is defective as a gastric cancer cell line, a proliferation inhibitory ability of the 1,3-benzodioxole derivative compounds represented by chemical formula I of the present invention was evaluated.
as §3, §4

Experiment [5] relates to MKN-45 cells. As to the kind of experiment: Cancer cell proliferation inhibition (Cell Counting Kit-8), gastric cancer cell line. The experiment is classed as cell-based. As to conditions: Homo sapiens, MKN-45, 264 h, 1000 nM, cultured seven to 11 days; read-out: % inhibition rate MKN -45.
Source text: as §5, §3, §4

Experiment [6] deals with SW-13 cells. As to the kind of experiment: Cancer cell proliferation inhibition (Cell Counting Kit-8), adrenal cancer cell line. Type of experiment: cell-based. As to conditions: Homo sapiens, SW13, 264 h, 1000 nM, cultured seven to 11 days; read-out: % inhibition rate SW-13. How it is done: as §2, §3, §4
The test system of experiment [7] is MIA-PaCa-2 cells. As to the kind of experiment: Cancer cell proliferation inhibition (Cell Counting Kit-8), pancreatic cancer cell line. Type of experiment: cell-based. Conditions: Homo sapiens, MIA PaCa-2, 264 h, 1000 nM, cultured seven to 11 days; read-out: % inhibition rate MIA-Paca2. How it is done:
as §2, §3, §4

In experiment [8] the test system is NCI-H1299 cells. As to the kind of experiment: Cancer cell proliferation inhibition (Cell Counting Kit-8), lung cancer cell line. Type of experiment: cell-based. As to conditions: Homo sapiens, NCI-H1299, 264 h, 1000 nM, cultured seven to 11 days; read-out: % inhibition rate NCI-H129 9. As for the experimental part:
as §2, §3, §4

Chain of EZH2 (Q15910 whole entry, species assumed): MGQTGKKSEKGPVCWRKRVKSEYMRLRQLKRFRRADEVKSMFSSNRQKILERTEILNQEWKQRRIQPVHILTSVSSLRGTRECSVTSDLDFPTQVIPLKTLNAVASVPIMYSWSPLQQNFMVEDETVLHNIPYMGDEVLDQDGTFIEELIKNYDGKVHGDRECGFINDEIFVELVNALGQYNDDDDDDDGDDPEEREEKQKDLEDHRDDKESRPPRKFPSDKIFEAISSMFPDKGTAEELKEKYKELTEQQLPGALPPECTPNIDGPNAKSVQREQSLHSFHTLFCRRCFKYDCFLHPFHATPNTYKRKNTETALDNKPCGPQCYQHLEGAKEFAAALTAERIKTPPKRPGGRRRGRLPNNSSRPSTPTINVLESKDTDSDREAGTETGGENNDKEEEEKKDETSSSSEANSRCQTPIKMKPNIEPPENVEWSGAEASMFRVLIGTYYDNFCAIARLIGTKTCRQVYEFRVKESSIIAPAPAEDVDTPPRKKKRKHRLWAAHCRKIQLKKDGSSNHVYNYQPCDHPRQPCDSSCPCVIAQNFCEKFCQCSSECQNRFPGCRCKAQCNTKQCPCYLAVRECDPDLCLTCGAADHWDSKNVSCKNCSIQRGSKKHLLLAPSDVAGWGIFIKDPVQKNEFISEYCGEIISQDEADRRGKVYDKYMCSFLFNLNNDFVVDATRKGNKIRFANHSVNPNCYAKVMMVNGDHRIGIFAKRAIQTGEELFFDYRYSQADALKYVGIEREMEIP
Chain of EZH2 (O75530 whole entry partner, species assumed): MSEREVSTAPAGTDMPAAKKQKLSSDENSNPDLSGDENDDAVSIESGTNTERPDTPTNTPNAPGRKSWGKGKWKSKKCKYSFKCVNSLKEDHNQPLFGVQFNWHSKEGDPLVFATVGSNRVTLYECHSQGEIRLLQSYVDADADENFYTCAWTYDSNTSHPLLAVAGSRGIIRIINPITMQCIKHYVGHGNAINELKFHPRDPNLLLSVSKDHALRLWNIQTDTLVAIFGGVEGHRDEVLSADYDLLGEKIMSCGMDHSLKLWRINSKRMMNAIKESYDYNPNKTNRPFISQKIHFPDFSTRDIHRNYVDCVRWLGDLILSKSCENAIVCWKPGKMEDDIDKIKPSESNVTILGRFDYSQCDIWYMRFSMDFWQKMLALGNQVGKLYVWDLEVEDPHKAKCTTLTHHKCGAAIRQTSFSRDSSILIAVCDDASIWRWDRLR
Chain of EZH2 (Q15022 whole entry partner, species assumed): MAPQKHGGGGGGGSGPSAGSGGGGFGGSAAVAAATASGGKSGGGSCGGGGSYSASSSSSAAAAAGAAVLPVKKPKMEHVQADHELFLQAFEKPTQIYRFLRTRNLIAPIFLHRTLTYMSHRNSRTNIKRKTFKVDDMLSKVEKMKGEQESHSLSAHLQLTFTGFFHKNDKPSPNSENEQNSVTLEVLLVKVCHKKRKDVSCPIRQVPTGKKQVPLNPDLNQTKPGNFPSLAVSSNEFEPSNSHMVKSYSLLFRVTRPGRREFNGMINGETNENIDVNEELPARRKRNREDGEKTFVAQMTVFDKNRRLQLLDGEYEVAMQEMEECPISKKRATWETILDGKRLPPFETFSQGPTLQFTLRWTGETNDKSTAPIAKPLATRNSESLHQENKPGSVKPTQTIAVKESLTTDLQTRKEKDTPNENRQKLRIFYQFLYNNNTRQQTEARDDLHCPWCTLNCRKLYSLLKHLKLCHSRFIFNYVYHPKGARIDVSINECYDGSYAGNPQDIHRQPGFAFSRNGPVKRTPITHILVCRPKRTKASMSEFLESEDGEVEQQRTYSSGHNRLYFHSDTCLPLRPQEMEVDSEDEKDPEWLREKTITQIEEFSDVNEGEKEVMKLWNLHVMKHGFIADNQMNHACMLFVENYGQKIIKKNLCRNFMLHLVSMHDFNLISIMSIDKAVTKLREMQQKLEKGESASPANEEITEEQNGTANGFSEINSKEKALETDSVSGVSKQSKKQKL
Chain of EZH1 (Q92800 whole entry, species assumed): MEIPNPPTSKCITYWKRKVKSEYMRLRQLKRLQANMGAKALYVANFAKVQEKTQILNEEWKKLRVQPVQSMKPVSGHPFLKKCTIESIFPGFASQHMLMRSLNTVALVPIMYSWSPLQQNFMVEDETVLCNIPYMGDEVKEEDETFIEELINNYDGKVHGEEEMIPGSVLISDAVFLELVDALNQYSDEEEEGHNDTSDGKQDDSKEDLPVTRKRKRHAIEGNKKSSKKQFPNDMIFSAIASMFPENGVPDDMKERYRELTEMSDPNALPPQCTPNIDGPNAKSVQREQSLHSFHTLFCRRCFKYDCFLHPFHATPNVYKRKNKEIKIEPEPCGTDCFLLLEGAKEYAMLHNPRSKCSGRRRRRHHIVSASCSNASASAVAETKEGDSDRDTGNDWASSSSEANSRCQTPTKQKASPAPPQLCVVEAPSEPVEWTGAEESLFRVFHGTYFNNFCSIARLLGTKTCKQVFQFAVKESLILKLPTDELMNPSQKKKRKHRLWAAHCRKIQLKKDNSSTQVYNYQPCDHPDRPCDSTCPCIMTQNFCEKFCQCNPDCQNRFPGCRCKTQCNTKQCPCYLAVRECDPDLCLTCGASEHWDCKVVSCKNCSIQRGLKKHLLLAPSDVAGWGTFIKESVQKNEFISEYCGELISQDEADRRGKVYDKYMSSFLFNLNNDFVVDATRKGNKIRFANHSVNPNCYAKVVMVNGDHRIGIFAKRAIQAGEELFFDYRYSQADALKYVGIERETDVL
Chain of EZH1 (O75530 whole entry partner, species assumed): as the sequence (O75530 whole entry partner, species assumed) above
Chain of EZH1 (Q15022 whole entry partner, species assumed): as the sequence (Q15022 whole entry partner, species assumed) above

The term inhibition denotes the change of the read-out against control, counted positive when it falls. `CSc1cc(C)[nH]c(=O)c1CNC(=O)c1cc(-c2ccc(N3C[C@@H](C)O[C@@H](C)C3)nc2)c2c(c1C)OC(C)([C@H]1CC[C@H](N(C)CCCC(F)(F)F)CC1)O2` (stereo partly shown) [Compound 113]: the inhibition at 0.005 µM in experiment [1] is 32.5%; in experiment [2], 96.7%. The figures for the inhibition at 0.01 µM in experiment [1] and in experiment [2] were 68.8% and 100%, respectively. For the same molecule, the inhibition at 1 µM in experiment [3] was at least 70%; in experiment [4], at least 70%; in experiment [5], at most 30%; in experiment [6], 30 to 70%; in experiment [7], at most 30%; in experiment [8] it was at most 30%.
In the case of `COCCN(C)[C@H]1CC[C@H](C2(C)Oc3c(-c4cnc(N5C[C@@H](C)O[C@@H](C)C5)nc4)cc(C(=O)NCc4c(SC)cc(C)[nH]c4=O)c(C)c3O2)CC1` (stereo partly drawn) [Compound 25, 7-(2-((2S,6R)-2,6-dimethylmorpholino)pyrimidin-5-yl)-2-(trans-4-((2-methoxyethyl)(methyl)amino)cyclohexyl)-2,4-dimethyl-N-((6-methyl-4-(methylthio)-2-oxo-1,2-dihydropyridin-3-yl)methyl)benzo[d][1,3]dioxole-5-carboxamide], the inhibition at 0.005 µM worked out at 82.4% in experiment [1] and 97.6% in experiment [2]. Moreover, the inhibition at 1 µM was at least 70% in experiment [3]; 30 to 70% in experiment [4]; at most 30% in experiment [5]; 30 to 70% in experiment [6]; at most 30% in experiment [7]; at most 30% in experiment [8].
`CSc1cc(C)[nH]c(=O)c1CNC(=O)c1cc(-c2cnc(N3CCSCC3)nc2)c2c(c1C)OC(C)(C1CCN(CC(F)(F)F)CC1)O2` (stereo not shown) [Compound 92, 2,4-dimethyl-N-((6-methyl-4-(methylthio)-2-oxo-1,2-dihydropyridin-3-yl)methyl)-7-(2-thiomorpholinopyrimidin-5-yl)-2-(1-(2,2,2-trifluoroethyl)piperidin-4-yl)benzo[d][1,3]dioxole-5-carboxamide]: the inhibition at 0.005 µM in experiment [1] was determined as 27.2%; in experiment [2], 80.1%. For the same molecule, the inhibition at 0.01 µM in experiment [1] worked out at 43.2%; in experiment [2], 91.8%. The inhibition at 1 µM in experiment [3] was at least 70%; in experiment [4], at least 70%; in experiment [5], 30 to 70%; in experiment [6], at most 30%; in experiment [7], at most 30%; in experiment [8], at most 30%.
For `COC(CN(C)[C@H]1CC[C@H](C2(C)Oc3c(-c4ccc(N5C[C@@H](C)O[C@@H](C)C5)nc4)cc(C(=O)NCc4c(SC)cc(C)[nH]c4=O)c(C)c3O2)CC1)OC` (stereo partly drawn) [Compound 31, 2-(trans-4-((2,2-dimethoxyethyl)(methyl)amino)cyclohexyl)-7-(6-((2S,6R)-2,6-dimethylmorpholino)pyridin-3-yl)-2,4-dimethyl-N-((6-methyl-4-(methylthio)-2-oxo-1,2-dihydropyridin-3-yl)methyl)benzo[d][1,3]dioxole-5-carboxamide], the inhibition at 0.005 µM in experiment [1] stood at 67.3%; in experiment [2], 75.6%. In addition, the inhibition at 1 µM is at least 70% in experiment [3]; 30 to 70% in experiment [4]; 30 to 70% in experiment [5]; 30 to 70% in experiment [6]; at most 30% in experiment [7]; at most 30% in experiment [8].
On to `CSc1cc(C)[nH]c(=O)c1CNC(=O)c1cc(-c2ccc(Cl)s2)c2c(c1C)OC(C)([C@H]1CC[C@H](N(C)C)CC1)O2` (relative stereo) [Compound 19, 7-(5-chlorothiophen-2-yl)-2-(trans-4-(dimethylamino)cyclohexyl)-2,4-dimethyl-N-((6-methyl-4-(methylthio)-2-oxo-1,2-dihydropyridin-3-yl)methyl)benzo[d][1,3]dioxole-5-carboxamide], for which the inhibition at 0.005 µM was 78.7% in experiment [1] and 98.7% in experiment [2]. Further, the inhibition at 1 µM is at least 70% in experiment [3]; 30 to 70% in experiment [4]; 30 to 70% in experiment [5]; 30 to 70% in experiment [6]; at most 30% in experiment [7]; at most 30% in experiment [8].
Take `CSc1cc(C)[nH]c(=O)c1CNC(=O)c1cc(-c2ccc(CN3CCOCC3)cc2)c2c(c1C)OC(C)([C@H]1CC[C@H](N(C)C)CC1)O2` (relative stereo) [Compound 6, 2-(trans-4-(dimethylamino)cyclohexyl)-2,4-dimethyl-N-((6-methyl-4-(methylthio)-2-oxo-1,2-dihydropyridin-3-yl)methyl)-7-(4-(morpholinomethyl)phenyl)benzo[d][1,3]dioxole-5-carboxamide]: the inhibition at 0.005 µM in experiment [1] turned out to be 86.7%; in experiment [2] it was 98.2%. Also, the inhibition at 1 µM in experiment [3] is 30 to 70%; in experiment [4], 30 to 70%; in experiment [5], at most 30%; in experiment [6] it was 30 to 70%; in experiment [7], at most 30%; in experiment [8] it was at most 30%.
Take `CSc1cc(C)[nH]c(=O)c1CNC(=O)c1cc(-c2cnc(N3CCOCC3)nc2)c2c(c1C)OC(C)(C1CCN(CC(F)F)CC1)O2` (single isomer, unassigned) [Compound 71, 2-(1-(2,2-difluoroethyl)piperidin-4-yl)-2,4-dimethyl-N-((6-methyl-4-(methylthio)-2-oxo-1,2-dihydropyridin-3-yl)methyl)-7-(2-morpholinopyrimidin-5-yl)benzo[d][1,3]dioxole-5-carboxamide]: the inhibition at 0.005 µM was found to be 68.5% in experiment [1] and 96.1% in experiment [2]. For the same molecule, the inhibition at 0.01 µM in experiment [1] was 82.8%; in experiment [2], 99.5%. Besides, the inhibition at 1 µM in experiment [3] is at least 70%; in experiment [5], 30 to 70%; in experiment [6], 30 to 70%; in experiment [7], at most 30%; in experiment [8] it was 30 to 70%. In experiment [4] (1 µM), the “% inhibition rate G401” value was “+++ (+++: ≥70%)”.
As to `CSc1cc(C)[nH]c(=O)c1CNC(=O)c1cc(-c2ccc(N3CCC(F)(F)CC3)nc2)c2c(c1C)OC(C)([C@H]1CC[C@H](N(C)C)CC1)O2` (relative stereo) [Compound 3, 7-(6-(4,4-difluoropiperidin-1-yl)pyridin-3-yl)-2-(trans-4-(dimethylamino)cyclohexyl)-2,4-dimethyl-N-((6-methyl-4-(methylthio)-2-oxo-1,2-dihydropyridin-3-yl)methyl)benzo[d][1,3]dioxole-5-carboxamide], the inhibition at 0.005 µM was 73.5% in experiment [1] and 66.5% in experiment [2]. In addition, the inhibition at 1 µM in experiment [3] was 30 to 70%; in experiment [4], 30 to 70%; in experiment [5], at most 30%; in experiment [6], 30 to 70%; in experiment [7], at most 30%; in experiment [8], 30 to 70%.
